Assay results from patent US20040110821A1, “GAL3 receptor antagonists for the treatment of affective disorders” (priority 2002, published 2004).

What was measured:
[1] = target: T1, Monoamine Oxidase B (central) (Rattus norvegicus, UniProt P19643); experiment: Central Monoamine Oxidase B Enzyme Assay; type: biochemical; conditions: rat brain as enzyme source
T1 construct: Rat brain was used as the enzyme source; tissue NovaScreen (Hanover, Md.) performed the assay; host or cells: rat brain
Description: (§1) The methods to determine activity at monoamine oxidase enzymes (for example, central MAOA and MAOB) are described by Otsuka and Kobayashi, 1964, and were performed by NovaScreen (Hanover, Md.) with the following modifications.
Central Monoamine Oxidase B Enzyme Assay: Rat brain was used as the enzyme source. The assay was performed as described above for central MAOA, except the reference compound was RO 166491 and the subtype selective blocker was 100 nM clorgyline. Also, the substrate ([^14C]Phenylethylamine, 0.056 Ci/mmol) was added and incubated for 10 minutes.
(§2) Binding data were analyzed using nonlinear regression and statistical techniques available in the GraphPAD Prism package (San Diego, Calif.). Enzymatic assay data were derived from a standard curve of reference compound data.

[2] = target: T2, human dopamine D1 receptor (Homo sapiens, UniProt P21728); experiment: Binding at human dopamine D1 receptor; conditions: read-out: hD1 Ki
T2 construct: purchased BioSignal, Inc. (Montreal, Canada)
T2 sequence (P21728 whole entry): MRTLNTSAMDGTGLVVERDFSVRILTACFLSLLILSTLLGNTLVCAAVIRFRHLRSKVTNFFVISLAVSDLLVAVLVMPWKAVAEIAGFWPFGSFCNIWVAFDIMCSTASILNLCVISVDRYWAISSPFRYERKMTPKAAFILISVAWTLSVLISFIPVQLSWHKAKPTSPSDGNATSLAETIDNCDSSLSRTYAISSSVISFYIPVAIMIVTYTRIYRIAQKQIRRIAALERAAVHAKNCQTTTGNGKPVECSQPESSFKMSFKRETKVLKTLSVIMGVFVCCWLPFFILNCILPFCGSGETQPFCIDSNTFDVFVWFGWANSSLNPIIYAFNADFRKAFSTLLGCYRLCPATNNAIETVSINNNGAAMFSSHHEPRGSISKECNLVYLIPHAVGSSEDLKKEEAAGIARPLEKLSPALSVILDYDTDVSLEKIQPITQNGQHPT
Description: (§3) Other receptors: Cell membranes expressing human dopamine D1, D2, D4 and rat D3 receptors were purchased through BioSignal, Inc. (Montreal, Canada). Binding assays using the histamine H1 receptor; dopamine receptors; and α1A, α1B, and α2 adrenergic receptors may be carried out according to the procedures described in U.S. Pat. No. 5,780,485, the disclosure of which is hereby incorporated by reference in its entirety into this application. Binding assays using the dopamine D5 receptor may be carried out according to the procedures described in U.S. Pat. No. 5,882,855, the disclosure of which is hereby incorporated by reference in its entirety into this application. Binding assays for the human α1D adrenergic receptor may be carried out according to the procedures described in U.S. Pat. No. 6,156,518, the disclosure of which is hereby incorporated by reference in its entirety into this application.
as §2

[3] = target: T3, human α1D adrenergic receptor (Homo sapiens, UniProt P25100); experiment: Binding at human α1D adrenergic receptor; conditions: read-out: hα1D Ki
T3 construct: expressed in transfected cells
T3 sequence (P25100 whole entry): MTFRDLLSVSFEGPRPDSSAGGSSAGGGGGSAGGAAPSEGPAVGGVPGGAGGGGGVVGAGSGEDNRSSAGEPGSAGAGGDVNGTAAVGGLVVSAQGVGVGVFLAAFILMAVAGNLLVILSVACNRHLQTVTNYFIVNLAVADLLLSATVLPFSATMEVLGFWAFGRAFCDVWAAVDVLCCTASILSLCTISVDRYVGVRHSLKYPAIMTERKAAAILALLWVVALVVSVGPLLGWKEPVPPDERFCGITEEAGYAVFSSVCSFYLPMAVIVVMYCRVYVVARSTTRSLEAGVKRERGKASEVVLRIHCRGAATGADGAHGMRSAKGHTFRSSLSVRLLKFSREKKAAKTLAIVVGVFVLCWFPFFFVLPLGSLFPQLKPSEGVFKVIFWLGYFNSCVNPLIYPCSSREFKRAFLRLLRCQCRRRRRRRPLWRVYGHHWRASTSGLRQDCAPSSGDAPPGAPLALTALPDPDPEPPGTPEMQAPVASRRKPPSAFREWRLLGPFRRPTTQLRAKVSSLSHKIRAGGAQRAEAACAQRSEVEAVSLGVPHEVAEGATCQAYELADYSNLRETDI
Description: as §3, §2

[4] = target: T4, human α1B adrenergic receptor (Homo sapiens, UniProt P35368); experiment: Binding at human α1B adrenergic receptor; conditions: read-out: hα1B Ki
T4 construct: expressed in transfected cells
T4 sequence (P35368 whole entry): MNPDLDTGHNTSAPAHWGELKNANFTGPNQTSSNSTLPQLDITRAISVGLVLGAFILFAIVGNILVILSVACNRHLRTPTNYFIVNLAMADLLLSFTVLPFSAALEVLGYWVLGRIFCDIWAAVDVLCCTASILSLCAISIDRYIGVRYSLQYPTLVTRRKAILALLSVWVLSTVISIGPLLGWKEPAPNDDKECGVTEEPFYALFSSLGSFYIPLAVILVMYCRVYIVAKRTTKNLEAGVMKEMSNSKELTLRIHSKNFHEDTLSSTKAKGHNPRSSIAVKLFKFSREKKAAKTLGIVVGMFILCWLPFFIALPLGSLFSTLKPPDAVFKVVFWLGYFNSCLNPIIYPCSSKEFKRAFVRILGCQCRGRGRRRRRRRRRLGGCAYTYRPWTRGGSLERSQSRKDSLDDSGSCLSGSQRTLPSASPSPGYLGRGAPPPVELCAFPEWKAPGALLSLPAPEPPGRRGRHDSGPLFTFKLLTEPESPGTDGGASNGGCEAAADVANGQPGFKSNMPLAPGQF
Description: as §3, §2

[5] = target: T5, 5HT transporter (Rattus norvegicus, UniProt P31652); experiment: Binding at native 5HT transporter; conditions: read-out: r5HT Uptk Ki
T5 construct: native, tissue-derived transporters; from tissue
T5 sequence (P31652 whole entry): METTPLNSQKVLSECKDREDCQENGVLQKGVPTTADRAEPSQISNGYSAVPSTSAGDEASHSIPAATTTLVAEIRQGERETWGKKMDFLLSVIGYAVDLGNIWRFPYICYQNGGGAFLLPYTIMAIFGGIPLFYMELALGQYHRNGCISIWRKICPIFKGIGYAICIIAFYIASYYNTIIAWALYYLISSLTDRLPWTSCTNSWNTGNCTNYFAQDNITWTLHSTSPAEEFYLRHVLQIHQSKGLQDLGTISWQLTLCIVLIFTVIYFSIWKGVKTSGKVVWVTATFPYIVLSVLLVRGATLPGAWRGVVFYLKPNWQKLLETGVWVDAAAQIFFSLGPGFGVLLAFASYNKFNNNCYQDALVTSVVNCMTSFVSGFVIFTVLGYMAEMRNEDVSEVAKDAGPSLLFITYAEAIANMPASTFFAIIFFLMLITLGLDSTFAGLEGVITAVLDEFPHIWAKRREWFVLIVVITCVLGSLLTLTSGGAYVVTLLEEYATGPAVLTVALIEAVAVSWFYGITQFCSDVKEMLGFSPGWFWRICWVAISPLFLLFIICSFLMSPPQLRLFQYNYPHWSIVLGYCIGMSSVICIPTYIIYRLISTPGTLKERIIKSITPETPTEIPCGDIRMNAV
Description: The methods to determine binding affinity at native transporters are described in the following publications: 5HT transporter and NE transporter (Owens et al., 1997), and DA transporter (Javitch et al, 1984).
as §2

[6] = target: T6, rat D3 receptor (Rattus norvegicus, UniProt P19020); experiment: Binding at rat dopamine D3 receptor; conditions: read-out: rD3 Ki
T6 construct: purchased BioSignal, Inc. (Montreal, Canada)
T6 sequence (P19020 whole entry): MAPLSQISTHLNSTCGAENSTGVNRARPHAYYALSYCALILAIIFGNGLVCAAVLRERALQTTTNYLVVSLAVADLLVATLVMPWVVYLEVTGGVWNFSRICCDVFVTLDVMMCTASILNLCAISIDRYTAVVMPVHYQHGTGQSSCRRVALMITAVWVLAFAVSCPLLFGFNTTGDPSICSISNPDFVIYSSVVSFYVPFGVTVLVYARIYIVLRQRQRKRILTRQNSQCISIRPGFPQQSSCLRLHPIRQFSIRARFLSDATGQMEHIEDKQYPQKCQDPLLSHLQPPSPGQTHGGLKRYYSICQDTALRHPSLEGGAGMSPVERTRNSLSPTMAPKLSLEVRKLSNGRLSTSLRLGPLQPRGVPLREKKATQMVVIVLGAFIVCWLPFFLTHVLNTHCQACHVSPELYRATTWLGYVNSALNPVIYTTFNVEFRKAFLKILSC
Description: as §3, §2

[7] = target: T7, human dopamine D2 receptor (Homo sapiens, UniProt P14416); experiment: Binding at human dopamine D2 receptor; conditions: read-out: hD2 Ki
T7 construct: purchased BioSignal, Inc. (Montreal, Canada)
T7 sequence (P14416 whole entry): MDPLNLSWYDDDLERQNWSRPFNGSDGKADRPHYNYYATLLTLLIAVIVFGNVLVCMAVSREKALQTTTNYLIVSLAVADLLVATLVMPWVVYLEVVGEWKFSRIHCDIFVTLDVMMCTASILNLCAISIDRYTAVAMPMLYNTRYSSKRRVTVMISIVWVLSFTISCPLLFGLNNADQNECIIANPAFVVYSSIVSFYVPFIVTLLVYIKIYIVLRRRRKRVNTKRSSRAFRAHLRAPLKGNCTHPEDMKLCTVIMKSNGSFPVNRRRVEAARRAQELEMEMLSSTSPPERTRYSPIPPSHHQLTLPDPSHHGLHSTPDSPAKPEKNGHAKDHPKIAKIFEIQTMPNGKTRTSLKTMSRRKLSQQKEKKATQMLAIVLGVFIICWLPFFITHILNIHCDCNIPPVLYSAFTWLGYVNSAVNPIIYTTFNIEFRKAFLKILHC
Description: as §3, §2

[8] = target: T8, Monoamine Oxidase A (central) (Rattus norvegicus, UniProt P21396); experiment: Central Monoamine Oxidase A Enzyme Assay; type: biochemical; conditions: rat brain as enzyme source
T8 construct: Rat brain was used as the enzyme source; tissue NovaScreen (Hanover, Md.) performed the assay; host or cells: rat brain
Description: as §1
Central Monoamine Oxidase A Enzyme Assay: Rat brain was used as the enzyme source. The enzyme source was pre-incubated with reference compound (RO 41-1049), test compound (Example 92), and subtype selective blocker (100 nM deprenyl) for 60 minutes at 37° C. in 50 mM KPO4 containing 50 μM EDTA and 10 μM dithiothreitol (pH 7.2 at 25° C.). Substrate ([^14C]Serotonin, […]) was then added and incubated for 30 minutes. The reaction was stopped by the addition of 0.5 ml of 1-2M citric acid. Radioactive product was extracted into xylene/ethyl acetate fluor and compared to control values by scintillation spectrophotometry in order to ascertain any interactions of test compound with central MAOA.
as §2

[9] = target: T9, human α2A adrenergic receptor (Homo sapiens, UniProt P08913); experiment: Binding at human α2A adrenergic receptor; conditions: read-out: hα2A Ki
T9 construct: expressed in transfected cells
T9 sequence (P08913 whole entry): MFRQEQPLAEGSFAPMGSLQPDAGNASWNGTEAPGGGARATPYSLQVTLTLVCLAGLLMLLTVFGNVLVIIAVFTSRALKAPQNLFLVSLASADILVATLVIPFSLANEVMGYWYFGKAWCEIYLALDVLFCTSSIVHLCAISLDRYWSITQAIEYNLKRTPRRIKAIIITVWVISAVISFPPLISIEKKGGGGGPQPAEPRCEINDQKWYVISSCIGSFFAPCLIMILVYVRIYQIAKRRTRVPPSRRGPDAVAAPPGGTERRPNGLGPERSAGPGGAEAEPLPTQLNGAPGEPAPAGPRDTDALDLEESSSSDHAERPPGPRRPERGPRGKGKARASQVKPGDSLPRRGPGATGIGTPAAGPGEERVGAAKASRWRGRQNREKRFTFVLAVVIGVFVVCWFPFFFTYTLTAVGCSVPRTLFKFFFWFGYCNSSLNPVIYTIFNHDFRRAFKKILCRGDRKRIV
Description: as §3, §2

[10] = target: T10, human α2C adrenergic receptor (Homo sapiens, UniProt P18825); experiment: Binding at human α2C adrenergic receptor; conditions: read-out: hα2C Ki
T10 construct: expressed in transfected cells
Description: as §3, §2

[11] = target: T11, human 5HT1D receptor (Homo sapiens, UniProt P28221); experiment: Radioligand binding at human 5HT1D receptor; conditions: read-out: h5HT1D Ki
T11 construct: expressed in transfected cells
T11 sequence (P28221 whole entry): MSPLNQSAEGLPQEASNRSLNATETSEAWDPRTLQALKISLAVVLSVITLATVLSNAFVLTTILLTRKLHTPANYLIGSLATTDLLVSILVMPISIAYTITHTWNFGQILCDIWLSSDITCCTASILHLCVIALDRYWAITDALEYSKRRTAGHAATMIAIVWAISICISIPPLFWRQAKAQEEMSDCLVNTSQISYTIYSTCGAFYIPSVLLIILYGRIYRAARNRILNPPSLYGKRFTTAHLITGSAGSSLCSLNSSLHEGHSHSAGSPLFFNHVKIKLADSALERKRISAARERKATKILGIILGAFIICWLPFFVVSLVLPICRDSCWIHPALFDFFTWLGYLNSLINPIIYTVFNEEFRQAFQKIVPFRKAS
Description: Human 5HT1B, 5HT1D, 5HT1E, 5HT1F, and 5HT7 ReceDtors: The cell lysates of LM(tk-) clonal cell line stably transfected with the genes encoding each of these 5HT receptor-subtypes were prepared as described above. Cell membranes were suspended in 50 mM Tris-HCl buffer (pH 7.4 at 37° C.) containing 10 mM MgCl2, 0.2 mM EDTA, 10 µM pargyline, and 0.1% ascorbate. […] Nonspecific binding was determined in the presence of 10 μM serotonin. The bound radioligand was separated by filtration through GF/B filters using a cell harvester.
as §2

[12] = target: T12, human dopamine D4 receptor (Homo sapiens, UniProt P21917); experiment: Binding at human dopamine D4 receptor; conditions: read-out: hD4 Ki
T12 construct: purchased BioSignal, Inc. (Montreal, Canada)
T12 sequence (P21917 whole entry): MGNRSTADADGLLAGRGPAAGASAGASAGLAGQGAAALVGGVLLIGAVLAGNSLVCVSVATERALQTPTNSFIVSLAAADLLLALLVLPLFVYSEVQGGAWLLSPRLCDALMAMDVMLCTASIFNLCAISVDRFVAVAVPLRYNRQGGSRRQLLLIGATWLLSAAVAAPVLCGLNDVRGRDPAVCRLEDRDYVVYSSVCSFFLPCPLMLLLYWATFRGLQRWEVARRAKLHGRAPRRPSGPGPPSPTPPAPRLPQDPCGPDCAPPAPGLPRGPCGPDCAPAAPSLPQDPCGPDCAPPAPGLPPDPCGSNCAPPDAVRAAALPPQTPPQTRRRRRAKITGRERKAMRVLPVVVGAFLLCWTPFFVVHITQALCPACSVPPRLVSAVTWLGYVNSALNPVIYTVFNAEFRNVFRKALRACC
Description: as §3, §2

T1 sequence (P19643 whole entry): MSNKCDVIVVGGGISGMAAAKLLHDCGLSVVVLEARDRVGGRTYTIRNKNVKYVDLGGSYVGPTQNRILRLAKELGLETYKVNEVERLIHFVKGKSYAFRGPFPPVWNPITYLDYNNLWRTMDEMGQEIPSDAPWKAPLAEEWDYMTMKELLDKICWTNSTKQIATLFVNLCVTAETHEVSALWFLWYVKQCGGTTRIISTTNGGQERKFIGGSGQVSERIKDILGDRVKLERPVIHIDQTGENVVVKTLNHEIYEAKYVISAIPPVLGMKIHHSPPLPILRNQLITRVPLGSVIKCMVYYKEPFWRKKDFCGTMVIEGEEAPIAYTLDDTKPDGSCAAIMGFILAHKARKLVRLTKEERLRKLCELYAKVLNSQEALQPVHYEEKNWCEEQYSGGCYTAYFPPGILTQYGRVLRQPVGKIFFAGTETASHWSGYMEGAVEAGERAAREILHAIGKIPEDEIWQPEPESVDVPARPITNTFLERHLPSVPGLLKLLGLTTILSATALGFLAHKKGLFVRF

For `O=C1C(=Nc2cccc(C(F)(F)F)c2)c2ccccc2N1c1ccccc1` [Example 92, 1-PHENYL-3-[[3-(TRIFLUOROMETHYL)PHENYL]IMINO]-1,3-DIHYDRO-2H-INDOL-2-ONE], the “% INHIBITION” value [1] was 1%, the Ki [2] was greater than 50 µM and the Ki [3] was 17.2 µM. The Ki [4] was greater than 50 µM, the Ki [5] was 45.1 µM and the Ki [6] was 48.2 µM. The Ki [7] was 41.4 µM, the “% INHIBITION” value [8] was 10% and the Ki [9] was 21.9 µM. The Ki [10] was greater than 50 µM, the Ki [11] was 32.1 µM and the Ki [12] was 41.4 µM.
